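Values below derive from 48-hour exposures of cells grown in 96-well plates, with endpoints linearly interpolated between the two concentrations bracketing the appropriate inhibition level. TGI denotes the concentration required for complete inhibition of growth.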
Tests used:
Test in all cases: NCI anticancer screen, dose series, 48 h
786-0 renal = system: 786-0 renal
A549 NSCLC = system: A549 NSCLC
ACHN renal = system: ACHN renal
BT-549 breast = system: BT-549 breast
CAKI-1 renal = system: CAKI-1 renal
CCRF-CEM leukemia = system: CCRF-CEM leukemia
COLO 205 colon = system: COLO 205 colon
DU-145 prostate = system: DU-145 prostate
EKVX NSCLC = system: EKVX NSCLC
HCC-2998 colon = system: HCC-2998 colon
HCT-116 colon = system: HCT-116 colon
HCT-15 colon = system: HCT-15 colon
HOP-62 NSCLC = system: HOP-62 NSCLC
HOP-92 NSCLC = system: HOP-92 NSCLC
HS 578T breast = system: HS 578T breast
HT29 colon = system: HT29 colon
IGROV1 ovarian = system: IGROV1 ovarian
K-562 leukemia = system: K-562 leukemia
KM12 colon = system: KM12 colon
LOX IMVI melanoma = system: LOX IMVI melanoma
M14 melanoma = system: M14 melanoma
MCF7 breast = system: MCF7 breast
MDA-MB-231 breast = system: MDA-MB-231 breast
MDA-MB-435 = system: MDA-MB-435
MDA-N = system: MDA-N
MOLT-4 leukemia = system: MOLT-4 leukemia
NCI-H23 lung = system: NCI-H23 lung
NCI-H460 lung = system: NCI-H460 lung
NCI-H522 lung = system: NCI-H522 lung
NCI/ADR-RES ovarian = system: NCI/ADR-RES ovarian
OVCAR-3 ovarian = system: OVCAR-3 ovarian
OVCAR-4 ovarian = system: OVCAR-4 ovarian
OVCAR-5 ovarian = system: OVCAR-5 ovarian
OVCAR-8 ovarian = system: OVCAR-8 ovarian
PC-3 prostate = system: PC-3 prostate
RPMI-8226 leukemia = system: RPMI-8226 leukemia
SF-268 CNS = system: SF-268 CNS
SF-295 CNS = system: SF-295 CNS
SF-539 CNS = system: SF-539 CNS
SK-MEL-2 melanoma = system: SK-MEL-2 melanoma
SK-MEL-28 melanoma = system: SK-MEL-28 melanoma
SK-MEL-5 melanoma = system: SK-MEL-5 melanoma
SK-OV-3 ovarian = system: SK-OV-3 ovarian
SN12C renal = system: SN12C renal
SNB-19 CNS = system: SNB-19 CNS
SNB-75 CNS = system: SNB-75 CNS
SR leukemia = system: SR leukemia
SW-620 colon = system: SW-620 colon
T-47D breast = system: T-47D breast
TK-10 renal = system: TK-10 renal
U251 CNS = system: U251 CNS
UACC-62 melanoma = system: UACC-62 melanoma
UO-31 renal = system: UO-31 renal
A498 renal = system: A498 renal
MALME-3M melanoma = system: MALME-3M melanoma
UACC-257 melanoma = system: UACC-257 melanoma

In the case of `O=C(CN1CCCC1)Nc1ccc2sc3ccccc3c(=O)c2n1`, the TGI (786-0 renal) is reported as 48.1 µM, the TGI (A549 NSCLC) is reported as 38.8 µM and the TGI (ACHN renal) is reported as 31.7 µM. It also gave a TGI (BT-549 breast) of 70 µM, a TGI (CAKI-1 renal) of 47.1 µM and a TGI (CCRF-CEM leukemia) of 48.2 µM. It also gave a TGI (COLO 205 colon) of 44.8 µM, a TGI (DU-145 prostate) greater than 100 µM and a TGI (EKVX NSCLC) greater than 100 µM. For the same molecule, the TGI (HCC-2998 colon) was 39.8 µM, the TGI (HCT-116 colon) was 68.3 µM and the TGI (HCT-15 colon) was greater than 100 µM. For the same molecule, the TGI (HOP-62 NSCLC) was 65 µM, the TGI (HOP-92 NSCLC) was 74.6 µM and the TGI (HS 578T breast) was 52.1 µM. For the same molecule, the TGI (HT29 colon) was greater than 100 µM, the TGI (IGROV1 ovarian) was 66.5 µM and the TGI (K-562 leukemia) was 46.7 µM. The TGI (KM12 colon) was 44.2 µM, the TGI (LOX IMVI melanoma) was 37.3 µM and the TGI (M14 melanoma) was 54.4 µM. The TGI (MCF7 breast) was greater than 100 µM, the TGI (MDA-MB-231 breast) was greater than 100 µM and the TGI (MDA-MB-435) was 35.3 µM. The TGI (MDA-N) was 77.6 µM, the TGI (MOLT-4 leukemia) was 15.6 µM and the TGI (NCI-H23 lung) was 99.1 µM. For the same molecule, the TGI (NCI-H460 lung) was greater than 100 µM, the TGI (NCI-H522 lung) was 36 µM and the TGI (NCI/ADR-RES ovarian) was 54.5 µM. The TGI (OVCAR-3 ovarian) was greater than 100 µM, the TGI (OVCAR-4 ovarian) was greater than 100 µM and the TGI (OVCAR-5 ovarian) was 62.3 µM. For the same molecule, the TGI (OVCAR-8 ovarian) was 52.5 µM, the TGI (PC-3 prostate) was 57.4 µM and the TGI (RPMI-8226 leukemia) was 63 µM. The TGI (SF-268 CNS) was 85.9 µM, the TGI (SF-295 CNS) was 67.8 µM and the TGI (SF-539 CNS) was 35.3 µM. It also gave a TGI (SK-MEL-2 melanoma) of 49.1 µM, a TGI (SK-MEL-28 melanoma) of 39.7 µM and a TGI (SK-MEL-5 melanoma) of 53.4 µM. For the same molecule, the TGI (SK-OV-3 ovarian) was 58.7 µM, the TGI (SN12C renal) was greater than 100 µM and the TGI (SNB-19 CNS) was greater than 100 µM. The TGI (SNB-75 CNS) was 60 µM, the TGI (SR leukemia) was greater than 100 µM and the TGI (SW-620 colon) was 33.6 µM. It also gave a TGI (T-47D breast) greater than 100 µM, a TGI (TK-10 renal) greater than 100 µM and a TGI (U251 CNS) of 46.3 µM. For the same molecule, the TGI (UACC-62 melanoma) was 36.6 µM and the TGI (UO-31 renal) was 27.9 µM.
For `CC(C)=CCC/C(C)=C/CC/C(C)=C/CC/C(C=O)=C/CC/C(C)=C\CC/C(C)=C/CC/C(C)=C/CC/C(C)=C/CC1=CC(=O)C=CC1=O`, the TGI (786-0 renal) was greater than 100 µM, the TGI (A498 renal) was greater than 100 µM and the TGI (A549 NSCLC) was greater than 100 µM. The TGI (ACHN renal) was greater than 100 µM, the TGI (BT-549 breast) was greater than 100 µM and the TGI (CAKI-1 renal) was 74.3 µM. It also gave a TGI (CCRF-CEM leukemia) greater than 100 µM, a TGI (COLO 205 colon) greater than 100 µM and a TGI (DU-145 prostate) greater than 100 µM. For the same molecule, the TGI (EKVX NSCLC) was greater than 100 µM, the TGI (HCC-2998 colon) was greater than 100 µM and the TGI (HCT-116 colon) was greater than 100 µM. It also gave a TGI (HCT-15 colon) greater than 100 µM, a TGI (HOP-62 NSCLC) greater than 100 µM and a TGI (HOP-92 NSCLC) greater than 100 µM. The TGI (HS 578T breast) was greater than 100 µM, the TGI (IGROV1 ovarian) was greater than 100 µM and the TGI (K-562 leukemia) was greater than 100 µM. It also gave a TGI (KM12 colon) greater than 100 µM, a TGI (LOX IMVI melanoma) greater than 100 µM and a TGI (M14 melanoma) greater than 100 µM. It also gave a TGI (MALME-3M melanoma) of 66.3 µM, a TGI (MCF7 breast) greater than 100 µM and a TGI (MDA-MB-231 breast) greater than 100 µM. For the same molecule, the TGI (MDA-MB-435) was greater than 100 µM, the TGI (MDA-N) was greater than 100 µM and the TGI (MOLT-4 leukemia) was greater than 100 µM. It also gave a TGI (NCI-H23 lung) greater than 100 µM, a TGI (NCI-H460 lung) greater than 100 µM and a TGI (NCI-H522 lung) of 32.3 µM. It also gave a TGI (NCI/ADR-RES ovarian) greater than 100 µM, a TGI (OVCAR-3 ovarian) greater than 100 µM and a TGI (OVCAR-4 ovarian) greater than 100 µM. It also gave a TGI (OVCAR-5 ovarian) greater than 100 µM, a TGI (OVCAR-8 ovarian) greater than 100 µM and a TGI (PC-3 prostate) greater than 100 µM. It also gave a TGI (RPMI-8226 leukemia) greater than 100 µM, a TGI (SF-268 CNS) greater than 100 µM and a TGI (SF-295 CNS) greater than 100 µM. For the same molecule, the TGI (SK-MEL-2 melanoma) was greater than 100 µM, the TGI (SK-MEL-28 melanoma) was greater than 100 µM and the TGI (SK-MEL-5 melanoma) was greater than 100 µM. It also gave a TGI (SK-OV-3 ovarian) greater than 100 µM, a TGI (SN12C renal) greater than 100 µM and a TGI (SNB-19 CNS) greater than 100 µM. For the same molecule, the TGI (SNB-75 CNS) was 96.1 µM, the TGI (SR leukemia) was greater than 100 µM and the TGI (SW-620 colon) was greater than 100 µM. For the same molecule, the TGI (T-47D breast) was 69.4 µM, the TGI (TK-10 renal) was greater than 100 µM and the TGI (U251 CNS) was greater than 100 µM. It also gave a TGI (UACC-257 melanoma) greater than 100 µM, a TGI (UACC-62 melanoma) of 53.1 µM and a TGI (UO-31 renal) greater than 100 µM.

From PubChem BioAssay (NCI)
